{"source": "patent US8071645B2", "about": "“Systems and methods for treating human inflammatory and proliferative diseases and wounds, with fatty acid metabolism inhibitors and/or glycolytic inhibitors” (The Regents of the University of Colorado, priority 2003, dated 2011)", "assay_type_in_all_cases": "cell-based", "key": {"L1210 cells": {"test_system": "L1210 cells", "assay": "DCFDA staining (reactive intermediates) of L1210 cells", "conditions": "24 hours of incubation, FIG. 12A", "method": "Flow Cytometry. Cells were harvested, counted, and resuspended at 10^6 cells/100 μl of PBS containing 2.5% fetal calf serum in preparation for flow cytometric analysis. Cells were stained for intracellular H202 using 6-carboxy-2′,7′-dichlorodihydrofluorescein diacetate (DCF-DA, Molecular Probes, Eugene, Oreg.). Briefly, cells were incubated at 37° with 1 mM DCF-DA for 20 minutes, washed twice in PBS containing 2.5% fetal calf serum and analyzed flow cytometrically. Mitochondrial membrane potential was assessed using Mitotracker Red (CM-H2XROS, Molecular Probes, Eugene, Oreg.). […] The cells were incubated at 37° for 20 minutes, washed twice in PBS containing 2.5% fetal calf serum and analyzed flow cytometrically. Data were acquired on a Coulter Elite Epics or Excel flow cytometer (Coulter, Hialeah, Fla.) and analyzed with CellQuest software, (Becton Dickinson, San Jose, Calif.). […] Each sample population was classified for cell size (forward scatter) and complexity (side scatter), gated on a population of interest and evaluated using 5,000 cells. […]\nWe measured the effects of etomoxir on metabolism by measuring mitochondrial membrane potential with a fluorescent dye (Mitotracker Red, Molecular Probes, Eugene, Oreg.) which fluoresces as a function of mitochondrial potential. […]"}, "[1]": {"test_system": "human leukemia RU937 cells", "assay": "mitochondrial membrane potential (MitoTracker) of RU937 cells", "conditions": "24 hours of incubation, FIG. 13", "method": "Flow Cytometry. Cells were harvested, counted, and resuspended at 10^6 cells/100 μl of PBS containing 2.5% fetal calf serum in preparation for flow cytometric analysis. Cells were stained for intracellular H202 using 6-carboxy-2′,7′-dichlorodihydrofluorescein diacetate (DCF-DA, Molecular Probes, Eugene, Oreg.). Briefly, cells were incubated at 37° with 1 mM DCF-DA for 20 minutes, washed twice in PBS containing 2.5% fetal calf serum and analyzed flow cytometrically. Mitochondrial membrane potential was assessed using Mitotracker Red (CM-H2XROS, Molecular Probes, Eugene, Oreg.). The cells were resuspended in PBS containing 2.5% fetal calf serum containing a final concentration of 0.5 micromolar Mitotracker dye. The cells were incubated at 37° for 20 minutes, washed twice in PBS containing 2.5% fetal calf serum and analyzed flow cytometrically. Data were acquired on a Coulter Elite Epics or Excel flow cytometer (Coulter, Hialeah, Fla.) and analyzed with CellQuest software, (Becton Dickinson, San Jose, Calif.). […] Each sample population was classified for cell size (forward scatter) and complexity (side scatter), gated on a population of interest and evaluated using 5,000 cells. […]\nThe effects of etomoxir on human leukemia RU937 cells was determined. […]"}, "[2]": {"test_system": "RD cells (rhabdomyosarcoma cells)", "assay": "percent death of RD cells by flow cytometry", "method": "Dot plots as a function of live versus dead cells. The cells were cultured at a concentration of 0.5 to 1 million cells per ml. Cells were untreated or treated with etomoxir or 2-deoxy-D-glucose at a concentration of 2.5 mM at the indicated concentrations for either 24 or 48 hours. In additional experiments, under each of these culture conditions, the cells were cultured for 24 hours at which time point, polyclonal anti-UCP-2 was added at a 1:1000 dilution of stock provided by Alpha Diagnostics, San Antonio, Tex. Cells were harvested and analyzed by flow cytometry. Each dot on the dot plots of FIGS. 1, 3, 5, 7, 9, and 11 represents one cell. Five thousand cells were assessed for forward scatter (FS), as a function of cell size, versus side scatter (SS), as a function of cellular granularity. The upper ellipse represents live cells by these criterion and the lower ellipse in each dot plot represents the dead cells.\nStatistical Analysis, Percents, and Geometric Mean Values Percents. Gating is a tool provided by Cell Quest software and allows for the analysis of a certain population of cells. Gating around both the live and dead cell populations gave a percent of the cell numbers that was in each population. After the gates were drawn, a percent value of dead cells was calculated by taking the number of dead cells divided by the number of total cells and multiplying by one hundred.\nReferring to FIGS. 29 and 30, RD cells (rhabdomyosarcoma cells—not drug resistant), cultured as described above under “Materials and Methods” were untreated or treated with etomoxir, with 2-deoxy-D-glucose, or with a combination of etomoxir and 2-deoxy-D-glucose, at concentrations indicated in FIG. 29 for 24 hours. Cells were harvested and analyzed by flow cytometry. […] The percent of cell deaths for RD cells after 24 hours was: (a) 31% when untreated, (b) 57% when treated with etomoxir alone, (c) 46% when treated with 2-deoxy-D-glucose alone, and (d) 66% when treated with the combination of etomoxir and 2-deoxy-D-glucose.\nReferring to FIGS. 33 and 34, RD cells, cultured as described in Example 22, were untreated or treated with etomoxir, with 2-deoxy-D-glucose, or with a combination of etomoxir and 2-deoxy-D-glucose, at concentrations indicated in FIG. 33 for 48 hours. Cells were harvested and analyzed by flow cytometry. […] The percent of cell deaths for RD cells after 48 hours was: (a) 36% when untreated, (b) 64% when treated with etomoxir alone, (c) 63% when treated with 2-deoxy-D-glucose alone, and (d) 68% when treated with the combination of etomoxir and 2-deoxy-D-glucose."}}}
{"smiles": "CCOC(=O)C1(CCCCCCOc2ccc(Cl)cc2)CO1", "note": "(stereo not shown) [etomoxir, 2-(6-(4-chlorophenoxy)-hexyl)-oxirane-2-carboxylic acid ethyl ester]", "values": [{"measurement": "free radicals (reactive intermediates), DCFDA staining", "setting": "L1210 cells", "value": "increase"}, {"measurement": "levels of mitochondrial membrane potential (MitoTracker)", "setting": "[1]", "value": "increased"}, {"measurement": "percent of cell deaths", "setting": "[2]; 24 hours, concentrations as in FIG. 29", "value": 57, "unit": "%"}, {"measurement": "percent of cell deaths", "setting": "[2]; 48 hours, concentrations as in FIG. 33", "value": 64, "unit": "%"}]}
